# Source: patent publication US20250134870A1, “PATHWAY MODULATOR, PHARMACEUTICAL COMPOSITION HAVING SAME, USE THEREOF, AND THERAPEUTIC METHOD USING SAME” (Jiangsu Yahong Meditech Co., Ltd., priority 2021, published 2025)
# Assays:
# [1] = tested on: NMO-IgG-induced neuromyelitis optica; experiment: NMO-IgG-induced neuromyelitis optica (NMO) in mice: AQP4, GFAP, IBA1, CD45 (Example 7); format: in vivo, C57 mice; conditions: 50 and 100 mg/kg PO QD × 10 days
# Method: 1) C57 female mice (6 to 8 weeks old) were anesthetized with intraperitoneal injection of 5% chloral hydrate (70 μL/10 g).
# 2) Fur of the top of head was removed to expose the scalp. The mouse head was fixed on the brain stereotaxic apparatus, keeping the top of the skull horizontal. The scalp was disinfected with iodophor.
# 3) The scalp was cut lengthwise for about 0.5 cm to search for the anterior and posterior fontanelle areas. The stereotaxic caliper was rotated to move the needle tip of trace syringe to the anterior and posterior fontanelle areas, and the mouse skull was kept horizontal by observing the distance from Bregma and Lambda to the needle tip. After horizontal adjustment, the needle tip was moved to Bregma and then moved 2 mm to the right to reach the position.
# 4) The position on the surface of the mouse skull was marked and a hole was drilled at this point with a skull drill. During drilling, blood vessels should be avoided and drilling should be continued carefully to avoid damaging the duramater and brain tissue.
# 5) The trace syringe was vertically introduced into the mouse brain tissue using the stereotaxic apparatus with a vertical needle depth of 3 mm. The syringe was kept in place and maintained for 5 min.
# 6) The syringe pump was turned on, the Infuse Only mode was selected, and the solution (2 μL NMO-IgG+3 μL human complement+5 μL PBS/drug, mixed and pipetted well in advance, and placed on ice) was injected at a speed of […].
# 7) After the injection was completed, the syringe was maintained for 10 min. The syringe was slowly pulled upward by rotating the caliper, and maintained for 5 min after moving 1 mm upward, until the syringe was completely pulled out. The skin was sutured and disinfected again with iodophor.
# Dosing started 3 days before model establishment and lasted until 7 days after model establishment, for 10 consecutive days.
# On Day 8 after model establishment (i.e., the day after the last dose), the experimental mice were euthanized and brain tissue was collected for frozen sections. Then, the immune response area of astrocyte markers in each group of mice was determined and evaluated (see the reference Ye Gong et al., Journal of Neuroinflammation, 17 (1). doi:10.1186/s12974-020-01874-6 for experimental methods).
# congestive heart failure = conditions: cited from earlier work
smiles,measurement,setting,value
NCc1c[nH]c(=S)n1[C@H]1CCc2c(F)cc(F)cc2C1 [Nepicastat],effect on NMO-IgG-induced neuromyelitis optica in mice,[1],certain inhibitory effect
same,immune parameter CD45,[1],no significant effect
same,immune parameter IBA1,[1],no significant effect
same,lesion ratio of AQP4,[1]; vs control group,significantly reduce the lesion ratio
same,lesion ratio of GFAP,[1]; vs control group,significantly reduce the lesion ratio
same,effect in the treatment of heart failure,congestive heart failure; further clinical studies,no effect in the treatment of heart failure
same,tolerability,"congestive heart failure; patients, congestive heart failure",well tolerated in patients
